Data set [1] relates to HUVEC. The data set can be described thus: ROS generation assay (DCFH-DA flow cytometry). The format is cell-based, human. The conditions noted are these: 3.75-15 µM. The procedure: Flow cytometry was performed to measure intracellular reactive oxygen species (ROS) levels using DCFH-DA (2’,7’-Dichlorodihydrofluorescein diacetate). Cells were collected and stained with DCFH-DA, followed by incubation at 37℃ for 30 min in the dark. Subsequently, the cell populations were analyzed by flow cytometry.

The next data set concerns zebrafish embryos. Nature of the data set: Zebrafish embryo toxicity. It is filed as in vivo, zebrafish (Danio rerio). The conditions noted are these: embryos exposed 12 to 48 hpf, survival. The procedure: Transgenic zebrafish Tg(flk: EGFP) were obtained from the China Zebrafish Resource Center and maintained at 28 ± 1 °C under a 14-hour light/10-hour dark cycle. […] Survival rates were recorded to calculate the median lethal concentration (LC₅₀). For the retinal angiogenesis assay, embryos at 1 day post fertilization (dpf) were transferred to E3 medium containing 5 mM CoCl₂·6 H₂O and 2.5 µg/mL GS4012 to induce hypoxia and abnormal vessel formation. At 3 dpf, test compounds were added and incubation continued until 5 dpf. Blank, model, and vehicle (≤ 0.1% DMSO) controls were included, with at least three replicates per group (n = 10–15 embryos). At 5 dpf, retinal vasculature was imaged using fluorescence microscopy and analyzed for branching number, vessel length, and density using ImageJ. Data are presented as mean ± standard deviation (SD) and analyzed using one-way ANOVA followed by Tukey’s post hoc test, with p < 0.05 considered statistically significant.
The zebrafish (Danio rerio) model was employed due to its distinct advantages, the optical transparency, which enable in vivo vascular visualization. […] Firstly, the 8 candidate compounds underwent preliminary toxicity evaluation in zebrafish embryos. […] At 48 hpf, the number of surviving embryos was quantified, and the lethal dose 50 (LD50) for each compound was determined based on the survival data. […]

For data set [2], the system named is HUVEC. The data set can be described thus: DNA damage: γ-H2AX western blot and alkaline comet assay. The format is cell-based, human. The procedure:
(§1) Total protein was extracted using RIPA lysis buffer (Solarbio, China) supplemented with phenylmethylsulfonyl fluoride (PMSF; Thermo Fisher Scientific, USA), protease inhibitor cocktail (Roche, Switzerland), and phosphatase inhibitor cocktail (Roche, Switzerland). Protein concentration was determined using a BCA protein assay kit (Thermo Fisher Scientific, USA). Equal amounts of protein were separated by 10% SDS-polyacrylamide gel electrophoresis (SDS-PAGE) and transferred onto nitrocellulose (NC) membranes. […] All primary antibodies were purchased from Cell Signaling Technology (CST, USA), except for GAPDH, which was obtained from Proteintech (Wuhan, China). After washing, the membranes were incubated with HRP-conjugated goat anti-rabbit or anti-mouse IgG secondary antibodies (Biosharp, China) for 1 h at room temperature. Protein bands were visualized using an enhanced chemiluminescence (ECL) detection system and scanned using a chemiluminescence imaging system.

Data set [3] deals with HUVEC. The data set can be described thus: Wound healing and Transwell assays. The format is cell-based, human. The conditions noted are these: candesartan 15, 7.5, 3.75 µM; sunitinib 2 µM; 48 h. Here is the method:
HUVEC cells were digested and inoculated into 6-well plates, with 1 × 10^5 cells added to each hole. On the second day, the gun head was drawn vertically along the edge of the upper lid of the hole plate. The cells were washed twice with PBS, the scratched cells were removed, and the serum free medium containing drugs was added. The photos were taken and recorded under the microscope for 0 h and cultured in a 5% CO2 incubator at 37℃. After 48 h, the sample was taken and photographed for recording. The cell scratch area was calculated with Image J software.
Migration assays were performed using the Transwell cell culture insert. HUVEC (3 × 10^4 cells) were suspended with 100µL serum-free medium containing different concentrations of compounds and placed in the upper layer of the Transwell cell culture insert, and 300µL medium containing 10% FBS was placed below the cell-permeable membrane. Following an incubation (48 h), the cells that had migrated through the membrane were stained with 0.2% crystal violet for 30 min and count.

For data set [4], the system named is STING signaling pathway in HUVEC. The data set can be described thus: Western blot of STING pathway proteins. The format is cell-based, human. Conditions: 48 h. The procedure: as §1
The test system of data set [5] is 4T1 cells (orthotopic breast cancer). Nature of the data set: Anti-tumor efficacy in breast cancer mouse model, alone or with Sunitinib. It is filed as in vivo, BALB/c mice.
Experimental: Female BABL/c mice aged 6–8 weeks were purchased from Beijing SPF Biological Co., LTD. 4T1 cells in good growth condition were collected and injected in situ into the mammary fat pad of female BALB/c mice at a density of 2 × 10⁶ cells per mouse. […] When the tumor size increased to approximately 1200 mm^3, we will conduct further tests. It should be pointed out that, when studying vascular leakage, DyLight™ 649-labeled tomato lectin (Tomoto-lectin) was injected intravenously into the mice via the tail vein two hours prior to tissue collection. The tumor tissues were then excised. Half of each tumor was fixed in 4% paraformaldehyde and subsequently processed for paraffin embedding and immunofluorescence staining. The remaining half was immediately frozen in liquid nitrogen and prepared as frozen sections for further experimental procedures.
Paraffin-embedded mouse tumor tissue sections were deparaffinized, rehydrated, and fixed with 4% paraformaldehyde at room temperature for 20 min. After washing with PBS, the sections were permeabilized with 1% Triton X-100 (Solarbio, China) for 15 min at room temperature, followed by blocking with 5% bovine serum albumin (BSA) in PBS containing 0.1% Triton X-100 for 1 h at room temperature to reduce nonspecific binding. […] After washing, the sections were further incubated overnight at 4 °C with primary antibodies against dsDNA and HSP60. The next day, the sections were incubated with Alexa Fluor 647-conjugated goat anti-rabbit IgG (H + L) secondary antibody (catalog no. A0468, Beyotime Biotechnology, China) for 1 h at room temperature in the dark. Nuclear staining was performed using DAPI (catalog no. C0060, Solarbio, China).
To observe metastasis, tissues were harvested and fixed in Bouin’s solution (saturated picric acid 75 ml + 40% formaldehyde 25 ml + glacial acetic acid 5 ml). After fixation, tissues were stained with picric acid to visualize metastatic nodules, which appeared as distinct lesions against the background tissue.
For data set [6], the system named is HUVEC. The data set can be described thus: Tube formation assay. The format is cell-based, human. The conditions noted are these: candesartan 15, 7.5, 3.75 µM; sunitinib 2 µM. The procedure: The 96-well plate was coated with 50 µl matrix glue per well, and then HUVEC was inoculated into the 96-well plate coated with matrix glue with a density of 4 × 10^4 cells per well. Photos were taken with an optical microscope (Nikon, China) after culture at 37℃ and 5% CO2 for 6–8 h, and the length of the generated blood vessels was analyzed using ImageJ.

In a further data set the target is T1, APLNR (Homo sapiens, UniProt P35414).
T1 sequence (P35414 1-380): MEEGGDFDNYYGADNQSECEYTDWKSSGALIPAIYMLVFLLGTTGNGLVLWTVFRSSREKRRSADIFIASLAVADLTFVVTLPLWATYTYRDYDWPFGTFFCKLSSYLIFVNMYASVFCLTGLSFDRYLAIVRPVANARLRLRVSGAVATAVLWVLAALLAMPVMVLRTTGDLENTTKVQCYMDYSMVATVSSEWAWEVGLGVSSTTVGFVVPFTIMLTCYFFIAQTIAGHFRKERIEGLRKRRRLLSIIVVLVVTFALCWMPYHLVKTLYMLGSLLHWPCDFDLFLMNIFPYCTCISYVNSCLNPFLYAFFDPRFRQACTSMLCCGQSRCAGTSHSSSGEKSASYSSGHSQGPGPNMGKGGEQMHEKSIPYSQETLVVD
Nature of the data set: cAMP assay in APLNR-HEK293T cells. It is filed as cell-based. Set-up: expressed in transfected cells; host or cells: HEK293. Conditions: forskolin 20 µM, Apelin-13 0.1 µM, compound 10^-4-100 µM. The procedure:
A suspension of APLNR-HEK293T cells was prepared and seeded into a 384-well OptiPlate™ 384 at a density of 1 × 10⁴ cells per well. The cells were cultured at 37℃ for 24 h. The culture medium was then removed, and 7.5 µL of serum-free medium containing 500 µM IBMX and the test compound was added to each well. The plate was incubated at 37℃ with 5% CO2 for 30 min. The concentration of cAMP was subsequently measured using the cAMP-Glo™ Assay Kit (Promega).
To characterize the molecular interactions between candesartan and APLNR, we performed molecular docking simulations using the APLNR crystal structure (PDB: 7SUS) as a template. […] In addition, previous studies have established that APLNR activation by its endogenous agonist Apelin-13 […] Gi protein signaling, thereby attenuating forskolin-induced cAMP accumulation. Then, using APLNR overexpression cell line (HEK293T-APLNR) and cAMP quantification assays to investigate the inhibitory activity of candesartan on APLNR.

Setting [7] is: candesartan 10 mg/kg, Sunitinib 40 mg/kg.

Turning to `CCOc1nc2cccc(C(=O)O)c2n1Cc1ccc(-c2ccccc2-c2nnn[nH]2)cc1` [Compound A-2, Candesartan], the ROS levels entry with HUVEC [1] is listed as “gradually increased with increasing drug concentration”. The “LD50(µM,48 h)” value with zebrafish embryos is 1.10 ± 0.12 µM. The “DNA fragmentation (comet assay)” value in the data set on HUVEC [2] is “increased DNA fragmentation”. Besides, in the data set with HUVEC [2] (western blot, 48 h), the γ-H2AX expression entry is “dose-dependent increase”. Further, the “Migratory and invasive capacities of HUVECs” value with HUVEC [3] is “significantly reduced the migratory and invasive capacities of HUVECs”. For the same compound, the “STING, p-TBK1/TBK1 and p-IRF3/IRF3 levels” value in data set [4] is “dose-dependent upregulation”. Moreover, the Tumor growth entry in data set [5] (candesartan 10 mg/kg once daily, Sunitinib 40 mg/kg every two days, intragastric, 14 days, vs vehicle) is recorded as “significantly reduce the tumor growth”. In data set [5] (setting [7]), the “Coverage of pericytes on endothelial cells in tumors (CD31/α-SMA)” value is “significantly increased” and the “Lung surface nodules / pulmonary metastasis” value is given as “inhibited pulmonary metastasis of breast cancer”. In the data set on HUVEC [6], the “Tube formation: mean mesh size and total mesh area” value was “increase the mean mesh and the total meshe area”; the “Tube formation: number of junctions, total segment length, number of meshes” value was “significantly reduced the number of junctions, total segment length, and the number of meshes”. Moreover, the “cAMP accumulation (reversal of Apelin-13 effect)” value at APLNR is “dose-dependently restored cAMP accumulation”.
